{
  "source": "paper PMC7555312",
  "about": "“Functional Characterization of Temporin-SHe, a New Broad-Spectrum Antibacterial and Leishmanicidal Temporin-SH Paralog from the Sahara Frog (Pelophylax saharicus)” (International Journal of Molecular Sciences, 2020)",
  "key": {"S. aureus ST1065 [1]": {"tested_on": "S. aureus ST1065", "type": "cell-based, Staphylococcus aureus"}, "K. pneumoniae ATCC 13883": {"tested_on": "K. pneumoniae ATCC 13883", "type": "cell-based, Klebsiella pneumoniae", "quoted_text": "(§3) Antimicrobial activity was assessed with a liquid growth inhibition assay performed according to a previously described protocol [14] using the Clinical and Laboratory Standards Institute (CLSI) guidelines. Briefly, in 96-well microtitration plates, mid-log-phase bacteria diluted to 10^6 CFU/mL in Mueller–Hinton (MH) broth were added to different concentrations of synthetic temporin-SHe (1–200 µM, final concentrations) and incubated at 37 °C for 18–20 h, under shaking (150 rpm). For E. faecalis, L. ivanovii and yeasts/fungi, 10^6 CFU/mL suspensions were prepared in LB broth, brain heart infusion (BHI) medium and Yeast Peptone Dextrose (YPD) medium, respectively, and incubation was performed at 30 °C for yeasts/fungi. […] MIC values represent the average of three independent experiments, each performed in triplicate with negative (no peptide) and positive (formaldehyde 0.7%) controls."}, "E. coli ATCC 25922": {"tested_on": "E. coli ATCC 25922", "assay": "Time-killing assay", "type": "cell-based, Escherichia coli", "details": "two-fold MIC (50 µM temporin-SHe), 10^6 cfu/mL in PBS, plate counting", "description": "Aliquots were withdrawn at different times and spread onto LB agar plates for cell counting after overnight incubation at 37 °C. Controls corresponding to the bacterial suspensions without peptide were also run. Two independent experiments were performed in triplicate. Results were expressed as the mean ± S.D. of a representative experiment."}, "[2]": {"tested_on": "L. major promastigotes (strain MHOM/SU/73/5-ASKH)", "type": "cell-based, Leishmania major", "details": "72 h, 26 °C", "description": "(§1) Antileishmanial activity of temporin-SHe was analyzed by a luminescence-based growth inhibition method using Leishmania promastigotes transfected with the vector pGMαNEOαLUC containing the gene LUC that codes for the firefly luciferase, cultured at 26 °C in SDM-79 medium supplemented with 10% fetal calf serum (Gibco), as previously described. Mid-log-phase promastigotes (1.25 × 10^6 cells/mL) were added in 96-well plates containing different concentrations of synthetic temporin-SHe (3.125–50 µM, final concentrations), and incubated 72 h at 26 °C. […] IC50 was determined with GraphPad Prism® 6.0 software (GraphPad Software, La Jolla, CA, USA) using a sigmoidal dose–response curve fitting equation."}, "E. coli strains": {"tested_on": "E. coli strains", "type": "cell-based, Escherichia coli", "quoted_text": "(§4) Antifungal activity was evaluated against C. albicans (ATCC 90028), C. parapsilosis (ATCC 22019) and S. cerevisiae.\nas §3"}, "C. albicans ATCC 90028": {"tested_on": "C. albicans ATCC 90028", "type": "cell-based, Candida albicans", "quoted_text": "as §4, §3"}, "[3]": {"tested_on": "L. braziliensis promastigotes (strain MHOM/BR/75/M2904)", "type": "cell-based, Leishmania braziliensis", "details": "72 h, 26 °C", "description": "as §1"}, "A. baumannii ATCC 19606": {"tested_on": "A. baumannii ATCC 19606", "type": "cell-based, Acinetobacter baumannii", "quoted_text": "as §3"}, "[4]": {"tested_on": "L. infantum promastigotes (strain MHOM/MA/67/ITMAP-263)", "type": "cell-based, Leishmania infantum", "details": "72 h, 26 °C", "description": "as §1"}, "S. aureus ST1065 [5]": {"tested_on": "S. aureus ST1065", "assay": "Membrane permeabilization assay (ONPG hydrolysis)", "type": "cell-based, Staphylococcus aureus", "details": "increasing peptide concentrations, 2.5 mM ONPG in PBS, 37 °C", "description": "(§2) The ability of temporin-SHe to permeabilize bacterial cytoplasmic membrane was determined using the Gram-negative strain E. coli ML-35p and the Gram-positive strain S. aureus ST1065, as described. Briefly, after incubation of bacteria (37 °C) in 96-well plates with PBS containing 2.5 mM o-nitrophenyl-β-D-galactopyranoside (ONPG) and different concentrations of temporin-SHe, the production of o-nitrophenol (ONP) resulting from hydrolysis of ONPG by intracytoplasmic β-galactosidase was monitored at 405 nm according to the time (Fluostar Galaxy plate reader, BMG Labtech, Champigny-sur-Marne, France). Wells containing bacteria and ONPG, with no peptide, were used as negative control. Two independent experiments were performed in triplicate. Results are from a representative experiment and were expressed as the mean ± S.D."}, "E. faecalis ATCC 29212": {"tested_on": "E. faecalis ATCC 29212", "type": "cell-based, Enterococcus faecalis", "quoted_text": "as §4, §3"}, "E. coli ML-35p": {"tested_on": "E. coli ML-35p", "assay": "Membrane permeabilization assay (ONPG hydrolysis)", "type": "cell-based, Escherichia coli", "details": "increasing peptide concentrations, 2.5 mM ONPG in PBS, 37 °C", "description": "as §2"}, "[6]": {"details": "luciferase-expressing promastigotes 1.25 × 10^6 cells/mL, Steady-Glo, mean of three independent experiments in triplicate"}, "[7]": {"details": "peptide 12.5 µM, promastigotes, mean of three independent assays in triplicates"}},
  "note": "Where no end group is shown, it is not given here.",
  "data": [
    {"substance": "FLPALAGIAGLLGKIF-NH2 [Temporin-SHe]", "values": [
      {"measurement": "MIC", "setting": "S. aureus ST1065 [1]", "result": 3.12, "unit": "µM"},
      {"measurement": "MIC", "setting": "K. pneumoniae ATCC 13883", "result": 100, "unit": "µM"},
      {"measurement": "time to total killing", "setting": "E. coli ATCC 25922", "result": 90, "unit": "min"},
      {"measurement": "IC50", "setting": "[2]; [6]", "result": 11.6, "unit": "µM"},
      {"measurement": "Leishmania growth inhibition (L. major)", "setting": "[2]; [7]", "result": 85, "unit": "%"},
      {"measurement": "MIC range", "setting": "E. coli strains", "result": "25 to 50", "unit": "µM"},
      {"measurement": "MIC", "setting": "C. albicans ATCC 90028", "result": ">100", "unit": "µM"},
      {"measurement": "IC50", "setting": "[3]; [6]", "result": 10.5, "unit": "µM"},
      {"measurement": "Leishmania growth inhibition (L. braziliensis)", "setting": "[3]; [7]", "result": 87, "unit": "%"},
      {"measurement": "MIC", "setting": "A. baumannii ATCC 19606", "result": 25, "unit": "µM"},
      {"measurement": "IC50", "setting": "[4]; [6]", "result": 4.6, "unit": "µM"},
      {"measurement": "inhibition of L. infantum growth", "setting": "[4]; peptide 3.12 µM, promastigotes, mean of three independent assays in triplicates", "result": 42, "unit": "%"},
      {"measurement": "cytoplasmic membrane permeabilization (ONP production, A405)", "setting": "S. aureus ST1065 [5]", "result": "time- and concentration-dependent manner"},
      {"measurement": "MIC", "setting": "E. faecalis ATCC 29212", "result": 12.5, "unit": "µM"},
      {"measurement": "cytoplasmic membrane permeabilization (ONP production, A405)", "setting": "E. coli ML-35p", "result": "time- and concentration-dependent manner"}
    ]}
  ]
}
